The experiment addresses CREBBP (Homo sapiens (Human), UniProt Q92793). In words: In vitro enzyme inhibition assay - CREBBP inhibition (AlphaScreen, biotinylated H4-tetraacetyl peptide). It is filed as binding. The settings on record: Table 28; AlphaScreen, H4-tetraacetyl peptide. The method, then: Determination of the IC50 for the CREBBP inhibitors disclosed herein was performed as follows: CREBBP was cloned and expressed in E. Coli as His-tag protein and purified by Nickel affinity and gel-filtration chromatography. […] CREBBP binding and inhibition was assessed by monitoring the interaction of biotinylated H4-tetraacetyl peptide (AnaSpec, H4K5/8/12/16(Ac), biotin-labeled) with the target using the AlphaScreen technology (Perkin Elmer). In a 384-well ProxiPlate CREBBP (50 nM final) was combined with peptide (20 nM final) in 50 mM HEPES (pH 7.3), 10 mM NaCl, 0.25 mM TCEP, 0.1% (w/v) BSA, and 0.005% (w/v) Brij-35 either in the presence of DMSO (final 0.4% DMSO) or compound dilution series in DMSO. After 20-minute incubation at room temperature, Alpha streptavidin donor beads and Nickel Chelate acceptor beads were added to a final concentration of 5 μg/mL. After two hours of equilibration, plates were read on an Envision instrument and the IC50 was calculated using a four parameter non-linear curve fit.
The ability of the compounds disclosed herein to inhibit CBP activity was quantified and the respective IC50 value was determined.

CREBBP, sequence (Q92793 1081-1197): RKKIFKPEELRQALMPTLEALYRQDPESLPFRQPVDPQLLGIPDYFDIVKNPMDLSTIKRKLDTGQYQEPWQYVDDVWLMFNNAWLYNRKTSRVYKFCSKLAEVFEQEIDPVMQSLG

As for `Cc1cc(-c2cc(NS(=O)(=O)C(C)C)nc(Oc3cc(Cl)ccc3Cl)n2)cn(C)c1=O` [Example 1, Propane-2-sulfonic acid [2-(2,5-dichloro-phenoxy)-6-(1,5-dimethyl-6-oxo-1,6-dihydro-pyridin-3-yl)-pyrimidin-4-yl]-amide], the IC50 was under 500 nM. `Cc1ccc(C)c(Oc2nc(NS(=O)(=O)C(C)C)cc(-c3cc(C)c(=O)n(C)c3)n2)c1` [Example 2, Propane-2-sulfonic acid [6-(1,5-dimethyl-6-oxo-1,6-dihydro-pyridin-3-yl)-2-(2,5-dimethyl-phenoxy)-pyrimidin-4-yl]-amide]: the IC50 is under 500 nM. With `COc1ccc(C)cc1Oc1nc(NS(=O)(=O)C(C)C)cc(-c2cc(C)c(=O)n(C)c2)n1` [Example 4, Propane-2-sulfonic acid [6-(1,5-dimethyl-6-oxo-1,6-dihydro-pyridin-3-yl)-2-(2-methoxy-5-methyl-phenoxy)-pyrimidin-4-yl]-amide] the figure was under 500 nM; with `Cc1ccc(Cl)c(Oc2nc(NS(=O)(=O)C(C)C)cc(-c3cc(C)c(=O)n(C)c3)n2)c1` [Example 5, Propane-2-sulfonic acid [2-(2-chloro-5-methyl-phenoxy)-6-(1,5-dimethyl-6-oxo-1,6-dihydro-pyridin-3-yl)-pyrimidin-4-yl]-amide], under 500 nM. As for `Cc1ccc(Cl)cc1Oc1nc(NS(=O)(=O)C(C)C)cc(-c2cc(C)c(=O)n(C)c2)n1` [Example 6, Propane-2-sulfonic acid [2-(5-chloro-2-methyl-phenoxy)-6-(1,5-dimethyl-6-oxo-1,6-dihydro-pyridin-3-yl)-pyrimidin-4-yl]-amide], the figure is under 500 nM. `Cc1ccc(C#N)cc1Oc1nc(NS(=O)(=O)C(C)C)cc(-c2cc(C)c(=O)n(C)c2)n1` [Example 7, Propane-2-sulfonic acid [2-(5-cyano-2-methyl-phenoxy)-6-(1,5-dimethyl-6-oxo-1,6-dihydro-pyridin-3-yl)-pyrimidin-4-yl]-amide] came in with an IC50 of under 500 nM.

Turning to `COc1cccc(C)c1Oc1nc(NS(=O)(=O)C(C)C)cc(-c2cc(C)c(=O)n(C)c2)n1` [Example 8, Propane-2-sulfonic acid [6-(1,5-dimethyl-6-oxo-1,6-dihydro-pyridin-3-yl)-2-(2-methoxy-6-methyl-phenoxy)-pyrimidin-4-yl]-amide], the IC50 is under 500 nM. As for `COc1ccc(C#N)cc1Oc1nc(NS(=O)(=O)C(C)C)cc(-c2cc(C)c(=O)n(C)c2)n1` [Example 9, Propane-2-sulfonic acid [2-(5-cyano-2-methoxy-phenoxy)-6-(1,5-dimethyl-6-oxo-1,6-dihydro-pyridin-3-yl)-pyrimidin-4-yl]-amide], the figure is under 500 nM; as for `CCCCS(=O)(=O)Nc1cc(-c2cc(C)c(=O)n(C)c2)nc(Oc2cc(C#N)ccc2OC)n1` [Example 10, Butane-1-sulfonic acid [2-(5-cyano-2-methoxy-phenoxy)-6-(1,5-dimethyl-6-oxo-1,6-dihydro-pyridin-3-yl)-pyrimidin-4-yl]-amide], under 500 nM. Turning to `CCCCS(=O)(=O)Nc1cc(-c2cc(C)c(=O)n(C)c2)nc(Oc2c(C#N)cccc2OC)n1` [Example 12, Butane-1-sulfonic acid [2-(2-cyano-6-methoxy-phenoxy)-6-(1,5-dimethyl-6-oxo-1,6-dihydro-pyridin-3-yl)-pyrimidin-4-yl]-amide], the IC50 was under 500 nM. With `CCCCS(=O)(=O)Nc1cc(-c2cc(C)c(=O)n(C)c2)nc(Oc2cc(Cl)ccc2Cl)n1` [Example 13, Butane-1-sulfonic acid [2-(2,5-dichloro-phenoxy)-6-(1,5-dimethyl-6-oxo-1,6-dihydro-pyridin-3-yl)-pyrimidin-4-yl]-amide] the figure was under 500 nM; with `CCCCS(=O)(=O)Nc1cc(-c2cc(C)c(=O)n(C)c2)nc(Oc2cc(C)ccc2Cl)n1` [Example 15, Butane-1-sulfonic acid [2-(2-chloro-5-methyl-phenoxy)-6-(1,5-dimethyl-6-oxo-1,6-dihydro-pyridin-3-yl)-pyrimidin-4-yl]-amide], under 500 nM.

In turn, `CCCCS(=O)(=O)Nc1cc(-c2cc(C)c(=O)n(C)c2)nc(Oc2ccccc2Cl)n1` [Example 16, Butane-1-sulfonic acid [2-(2-chloro-phenoxy)-6-(1,5-dimethyl-6-oxo-1,6-dihydro-pyridin-3-yl)-pyrimidin-4-yl]-amide] showed an IC50 of under 500 nM. Compound `Cc1cc(-c2cc(NS(=O)(=O)C(C)C)nc(Oc3c(F)cccc3F)n2)cn(C)c1=O` [Example 17, Propane-2-sulfonic acid [2-(2,6-difluoro-phenoxy)-6-(1,5-dimethyl-6-oxo-1,6-dihydro-pyridin-3-yl)-pyrimidin-4-yl]-amide] registered an IC50 of under 500 nM. With `CCCCS(=O)(=O)Nc1cc(-c2cc(C)c(=O)n(C)c2)nc(Oc2c(F)cccc2F)n1` [Example 18, Butane-1-sulfonic acid [2-(2,6-difluoro-phenoxy)-6-(1,5-dimethyl-6-oxo-1,6-dihydro-pyridin-3-yl)-pyrimidin-4-yl]-amide] the figure was under 500 nM. In turn, `CCCCS(=O)(=O)Nc1cc(-c2cc(C)c(=O)n(C)c2)nc(Oc2c(C)cccc2F)n1` [Example 19, Butane-1-sulfonic acid [6-(1,5-dimethyl-6-oxo-1,6-dihydro-pyridin-3-yl)-2-(2-fluoro-6-methyl-phenoxy)-pyrimidin-4-yl]-amide] yielded an IC50 of under 500 nM.

Consider `CCCS(=O)(=O)Nc1cc(-c2cc(C)c(=O)n(C)c2)nc(Oc2c(F)cccc2F)n1` [Example 20, Propane-1-sulfonic acid [2-(2,6-difluoro-phenoxy)-6-(1,5-dimethyl-6-oxo-1,6-dihydro-pyridin-3-yl)-pyrimidin-4-yl]-amide], for which the IC50 was under 500 nM.

Take `CCCS(=O)(=O)Nc1cc(-c2cc(C)c(=O)n(C)c2)nc(Oc2c(C)cccc2F)n1` [Example 21, Propane-1-sulfonic acid [6-(1,5-dimethyl-6-oxo-1,6-dihydro-pyridin-3-yl)-2-(2-fluoro-6-methyl-phenoxy)-pyrimidin-4-yl]-amide]: the IC50 is under 500 nM. For the compound `CCCCS(=O)(=O)Nc1cc(-c2cc(C)c(=O)n(C)c2)nc(Oc2c(C)cccc2C#N)n1` [Example 22, Butane-1-sulfonic acid [2-(2-cyano-6-methyl-phenoxy)-6-(1,5-dimethyl-6-oxo-1,6-dihydro-pyridin-3-yl)-pyrimidin-4-yl]-amide], the IC50 is under 500 nM. In turn, `CCCS(=O)(=O)Nc1cc(-c2cc(C)c(=O)n(C)c2)nc(Oc2c(C)cccc2C#N)n1` [Example 23, Propane-1-sulfonic acid [2-(2-cyano-6-methyl-phenoxy)-6-(1,5-dimethyl-6-oxo-1,6-dihydro-pyridin-3-yl)-pyrimidin-4-yl]-amide] yielded an IC50 of under 500 nM. With `Cc1cccc(C#N)c1Oc1nc(NS(=O)(=O)C(C)C)cc(-c2cc(C)c(=O)n(C)c2)n1` [Example 24, Propane-2-sulfonic acid [2-(2-cyano-6-methyl-phenoxy)-6-(1,5-dimethyl-6-oxo-1,6-dihydro-pyridin-3-yl)-pyrimidin-4-yl]-amide] the figure was under 500 nM; with `Cc1cc(Cl)cc(Cl)c1Oc1nc(NS(C)(=O)=O)cc(-c2cc(C)c(=O)n(C)c2)n1` [Example 25, N-[2-(2,4-Dichloro-6-methyl-phenoxy)-6-(1,5-dimethyl-6-oxo-1,6-dihydro-pyridin-3-yl)-pyrimidin-4-yl]-methanesulfonamide], under 500 nM. The compound `CCS(=O)(=O)Nc1cc(-c2cc(C)c(=O)n(C)c2)nc(Oc2c(C)cc(Cl)cc2Cl)n1` [Example 26, Ethanesulfonic acid [2-(2,4-dichloro-6-methyl-phenoxy)-6-(1,5-dimethyl-6-oxo-1,6-dihydro-pyridin-3-yl)-pyrimidin-4-yl]-amide] registered an IC50 of under 500 nM. As for `CCCS(=O)(=O)Nc1cc(-c2cc(C)c(=O)n(C)c2)nc(Oc2c(C)cc(Cl)cc2Cl)n1` [Example 27, Propane-1-sulfonic acid [2-(2,4-dichloro-6-methyl-phenoxy)-6-(1,5-dimethyl-6-oxo-1,6-dihydro-pyridin-3-yl)-pyrimidin-4-yl]-amide], the figure is under 500 nM; as for `CCCCS(=O)(=O)Nc1cc(-c2cc(C)c(=O)n(C)c2)nc(Oc2c(C)cc(Cl)cc2Cl)n1` [Example 28, Butane-1-sulfonic acid [2-(2,4-dichloro-6-methyl-phenoxy)-6-(1,5-dimethyl-6-oxo-1,6-dihydro-pyridin-3-yl)-pyrimidin-4-yl]-amide], under 500 nM; as for `Cc1cc(Cl)cc(Cl)c1Oc1nc(NS(C)(=O)=O)cc(-c2ccc(=O)n(C)c2)n1` [Example 29, N-[2-(2,4-Dichloro-6-methyl-phenoxy)-6-(1-methyl-6-oxo-1,6-dihydro-pyridin-3-yl)-pyrimidin-4-yl]-methanesulfonamide], under 500 nM. In the case of `CCS(=O)(=O)Nc1cc(-c2ccc(=O)n(C)c2)nc(Oc2c(C)cc(Cl)cc2Cl)n1` [Example 30, Ethanesulfonic acid [2-(2,4-dichloro-6-methyl-phenoxy)-6-(1-methyl-6-oxo-1,6-dihydro-pyridin-3-yl)-pyrimidin-4-yl]-amide], the IC50 was under 500 nM. `CCCS(=O)(=O)Nc1cc(-c2ccc(=O)n(C)c2)nc(Oc2c(C)cc(Cl)cc2Cl)n1` [Example 31, Propane-1-sulfonic acid [2-(2,4-dichloro-6-methyl-phenoxy)-6-(1-methyl-6-oxo-1,6-dihydro-pyridin-3-yl)-pyrimidin-4-yl]-amide] gave an IC50 of under 500 nM.

(Values after patent US10202360B2 (CELGENE QUANTICEL RESEARCH, INC., priority 2016, dated 2019).)
